The values that follow come from patent US11753407B2, “Compounds for treating spinal muscular atrophy” (PTC Therapeutics, Inc., priority 2012, dated 2023).

Assay [1] has as its system SMN2 minigene mRNA (SMN2-A minigene) in HEK293H cells. As to the kind of experiment: SMN2 minigene mRNA splicing RT-qPCR assay in cultured cells. The format is cell-based, human. Particulars: Homo sapiens, HEK293-H; concentration increasing full length SMN2 mRNA 1.5-fold relative to vehicle-treated cells; HEK293H cells with SMN2-A minigene, 24 hours, 7-point concentration data; read-out: EC1.5x for production of full length SMN2 mRNA. Put shortly: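 Potency reflects the concentration that lifts full-length SMN2 minigene mRNA 1.5-fold above vehicle in stably transfected HEK293H cells after 24 h of treatment. Transcript abundance came from RT-qPCR as (1+E)^−Ct, normalized to GAPDH; endogenous SMN1/SMN2 are not detected.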
Background: Real-time PCR tracks product formation cycle by cycle.

The test system of assay [2] is Smn protein in SMA patient fibroblast cells (GM03813). As to the kind of experiment: Smn protein assay in cultured cells (SMN HTRF). It counts as cell-based, human. Particulars: SMA patient fibroblast cells, 48 hours; for EC1.5x for Smn protein expression: 7-point concentration curve, SMN HTRF, concentration producing 1.5 times Smn protein vs DMSO vehicle control; for maximum fold (Fold) increase of Smn protein: 7-point concentration data, fold relative to vehicle control. Put shortly:
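Smn protein abundance in treated SMA fibroblasts was measured by HTRF after 48 h compound exposure. The reported EC1.5× is the concentration producing 1.5 times vehicle Smn levels.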
On the technique in general: Time-resolved FRET reads energy transfer from a long-lived donor to a nearby acceptor.

Turning to `Cc1cn2cc(-c3cc(=O)n4cc(N5CCN[C@H](C)C5)ccc4n3)cc2c(C)n1` [Compound 713, 2-(1,3-dimethylpyrrolo[1,2-a]pyrazin-7-yl)-7-[(3R)-3-methylpiperazin-1-yl]-4H-pyrido[1,2-a]pyrimidin-4-one], the EC (1.5-fold increase) in assay [1] is less than 0.1 µM. Besides, in assay [2], the “EC1.5x for Smn protein expression” value is listed as “**** (an EC1.5x≤0.3 μM is indicated by four stars (****))” and the “maximum fold (Fold) increase of Smn protein” value (from here on “maximum fold (Fold) increase”) is given as “***** (a fold increase >1.65 is indicated by five stars (*****))”.

For `Cc1cn2nc(-c3cc(=O)n4cc(C5CCN(C)CC5)cc(C)c4n3)cc2c(C)n1` [Compound 672, 2-(4,6-dimethylpyrazolo[1,5-a]pyrazin-2-yl)-9-methyl-7-(1-methylpiperidin-4-yl)-4H-pyrido[1,2-a]pyrimidin-4-one], the EC (1.5-fold increase) in assay [1] was less than 0.1 µM. For the same molecule, in assay [2], the “EC1.5x for Smn protein expression” value is listed as “**** (an EC1.5x≤0.3 μM is indicated by four stars (****))” and the “maximum fold (Fold) increase” value is reported as “***** (a fold increase >1.65 is indicated by five stars (*****))”.

On to `Cc1cn2cc(-c3cc(=O)n4cc(C5CCNCC5)ncc4n3)cc(Cl)c2n1` [Compound 587, 2-(8-chloro-2-methylimidazo[1,2-a]pyridin-6-yl)-7-(piperidin-4-yl)-4H-pyrazino[1,2-a]pyrimidin-4-one], for which, in assay [1], the EC (1.5-fold increase) was less than 0.1 µM. For the same molecule, in assay [2], the “EC1.5x for Smn protein expression” value is recorded as “**** (an EC1.5x≤0.3 μM is indicated by four stars (****))”; the “maximum fold (Fold) increase” value is “**** (a fold increase between >1.5 and ≤1.65 is indicated by four stars (****))”.

For `Cc1cn2cc(-c3cc(=O)n4cc(C5(O)CCNCC5)ccc4n3)cc(F)c2n1` [Compound 811, 2-(8-fluoro-2-methylimidazo[1,2-a]pyridin-6-yl)-7-(4-hydroxypiperidin-4-yl)-4H-pyrido[1,2-a]pyrimidin-4-one], the EC (1.5-fold increase) in assay [1] fell in the range of 0.3 to 1 µM. Moreover, in assay [2], the “EC1.5x for Smn protein expression” value was “*** (an EC1.5× between >0.3 μM and ≤1 μM is indicated by three stars (***))”; the “maximum fold (Fold) increase” value is recorded as “***** (a fold increase >1.65 is indicated by five stars (*****))”.

With `CCNC1CCN(c2cc(C)c3nc(-c4ccc(OC)c(OC)c4)cc(=O)n3c2)CC1` [Compound 359], in assay [1], the EC (1.5-fold increase) was less than 0.1 µM. Moreover, in assay [2], the “EC1.5x for Smn protein expression” value was “** (an EC1.5× between >1 μM and ≤3 μM is indicated by two stars (**))”; the “maximum fold (Fold) increase” value is “*** (a fold increase between >1.35 and ≤1.5 is indicated by three stars (***))”.

For the molecule `CCN1CCC(c2cn3c(=O)cc(-c4cc5c(C)nc(C)cn5n4)nc3cn2)CC1` [Compound 504, 2-(4,6-dimethylpyrazolo[1,5-a]pyrazin-2-yl)-7-(1-ethylpiperidin-4-yl)-4H-pyrazino[1,2-a]pyrimidin-4-one], the EC (1.5-fold increase) in assay [1] is less than 0.1 µM. In assay [2], the “EC1.5x for Smn protein expression” value is given as “**** (an EC1.5x≤0.3 μM is indicated by four stars (****))” and the “maximum fold (Fold) increase” value is “***** (a fold increase >1.65 is indicated by five stars (*****))”.

In the case of `COc1ccc(-c2cc(=O)n3cc(NC4CCNCC4)ccc3n2)cc1OC` [Compound 187, 2-(3,4-dimethoxyphenyl)-7-(piperidin-4-ylamino)-4H-pyrido[1,2-a]pyrimidin-4-one], the EC (1.5-fold increase) in assay [1] fell in the range of 1 to 3 µM. Moreover, the “maximum fold (Fold) increase” value in assay [2] was “** (a fold increase between >1.2 and ≤1.35 is indicated by two stars (**))”.

For the molecule `Cc1cn2cc(-c3cc(=O)n4cc(N5CCN(C)CC5)ccc4n3)cc(C(F)(F)F)c2n1` [Compound 806, 7-(4-methylpiperazin-1-yl)-2-[2-methyl-8-(trifluoromethyl)imidazo[1,2-a]pyridin-6-yl]-4H-pyrido[1,2-a]pyrimidin-4-one], the EC (1.5-fold increase) in assay [1] is less than 0.1 µM. In assay [2], the “EC1.5x for Smn protein expression” value is reported as “**** (an EC1.5x≤0.3 μM is indicated by four stars (****))” and the “maximum fold (Fold) increase” value is reported as “***** (a fold increase >1.65 is indicated by five stars (*****))”.

`Cc1nc2ccc(-c3cc(=O)n4cc(N5CCN(C)CC5)ccc4c3)cc2o1` [Compound 323, 2-(2-methyl-1,3-benzoxazol-6-yl)-7-(4-methylpiperazin-1-yl)-4H-quinolizin-4-one]: in assay [1], the EC (1.5-fold increase) is 0.1 to 0.3 µM. In assay [2], the “EC1.5x for Smn protein expression” value is “** (an EC1.5× between >1 μM and ≤3 μM is indicated by two stars (**))”; the “maximum fold (Fold) increase” value is “*** (a fold increase between >1.35 and ≤1.5 is indicated by three stars (***))”.

As for `CCc1nc(C)cn2nc(-c3cc(=O)n4cc(C5CCN(CC)CC5)cc(C)c4n3)cc12` [Compound 790, 2-(4-ethyl-6-methylpyrazolo[1,5-a]pyrazin-2-yl)-7-(1-ethylpiperidin-4-yl)-9-methyl-4H-pyrido[1,2-a]pyrimidin-4-one], the EC (1.5-fold increase) in assay [1] was less than 0.1 µM. In assay [2], the “EC1.5x for Smn protein expression” value is recorded as “**** (an EC1.5x≤0.3 μM is indicated by four stars (****))” and the “maximum fold (Fold) increase” value is “***** (a fold increase >1.65 is indicated by five stars (*****))”.

Turning to `CCc1nc(C)cn2nc(-c3cc(=O)n4cc(OCC5CCNCC5)ccc4n3)cc12` [Compound 831, 2-(4-ethyl-6-methylpyrazolo[1,5-a]pyrazin-2-yl)-7-(piperidin-4-ylmethoxy)-4H-pyrido[1,2-a]pyrimidin-4-one], the EC (1.5-fold increase) in assay [1] was in the range of 0.1 to 0.3 µM. In assay [2], the “EC1.5x for Smn protein expression” value was “** (an EC1.5× between >1 μM and ≤3 μM is indicated by two stars (**))”; the “maximum fold (Fold) increase” value is “**** (a fold increase between >1.5 and ≤1.65 is indicated by four stars (****))”.

Take `Cc1cn2nc(-c3cc(=O)n4cc(CCCN)ccc4n3)cc2c(C)n1` [Compound 742, 7-(3-aminopropyl)-2-(4,6-dimethylpyrazolo[1,5-a]pyrazin-2-yl)-4H-pyrido[1,2-a]pyrimidin-4-one]: in assay [1], the EC (1.5-fold increase) is 0.1 to 0.3 µM. Also, in assay [2], the “EC1.5x for Smn protein expression” value is “*** (an EC1.5× between >0.3 μM and ≤1 μM is indicated by three stars (***))”; the “maximum fold (Fold) increase” value was “***** (a fold increase >1.65 is indicated by five stars (*****))”.

For the molecule `CN1CCN(c2cn3c(=O)cc(-c4ccc5nn(C)cc5c4)nc3cn2)CC1` [Compound 589, 2-(2-methyl-2H-indazol-5-yl)-7-(4-methylpiperazin-1-yl)-4H-pyrazino[1,2-a]pyrimidin-4-one], the EC (1.5-fold increase) in assay [1] fell in the range of 0.1 to 0.3 µM. In addition, in assay [2], the “EC1.5x for Smn protein expression” value is “*** (an EC1.5× between >0.3 μM and ≤1 μM is indicated by three stars (***))”; the “maximum fold (Fold) increase” value is “**** (a fold increase between >1.5 and ≤1.65 is indicated by four stars (****))”.

As for `CCc1nc(C)cn2nc(-c3cc(=O)n4cc(N5CC[C@@H](N(C)C)C5)ccc4n3)cc12` [Compound 814, 7-[(3R)-3-(dimethylamino)pyrrolidin-1-yl]-2-(4-ethyl-6-methylpyrazolo[1,5-a]pyrazin-2-yl)-4H-pyrido[1,2-a]pyrimidin-4-one], the EC (1.5-fold increase) in assay [1] is less than 0.1 µM. In assay [2], the “EC1.5x for Smn protein expression” value is recorded as “**** (an EC1.5x≤0.3 μM is indicated by four stars (****))” and the “maximum fold (Fold) increase” value is “***** (a fold increase >1.65 is indicated by five stars (*****))”.

As for `COc1ccc(-c2cc(=O)n3cc(N4CCC(N)CC4)ccc3c2)cc1F` [Compound 201, 7-(4-aminopiperidin-1-yl)-2-(3-fluoro-4-methoxyphenyl)-4H-quinolizin-4-one], the EC (1.5-fold increase) in assay [1] was less than 0.1 µM. Moreover, in assay [2], the “EC1.5x for Smn protein expression” value is “*** (an EC1.5× between >0.3 μM and ≤1 μM is indicated by three stars (***))”; the “maximum fold (Fold) increase” value is “*** (a fold increase between >1.35 and ≤1.5 is indicated by three stars (***))”.

Regarding `Cc1cc(N2CCN[C@@H](C)C2)cn2c(=O)cc(-c3ccc4nn(C)cc4c3)nc12` [Compound 756, 9-methyl-2-(2-methyl-2H-indazol-5-yl)-7-[(3S)-3-methylpiperazin-1-yl]-4H-pyrido[1,2-a]pyrimidin-4-one], in assay [1], the EC (1.5-fold increase) is less than 0.1 µM. Besides, in assay [2], the “EC1.5x for Smn protein expression” value is recorded as “**** (an EC1.5x≤0.3 μM is indicated by four stars (****))” and the “maximum fold (Fold) increase” value is “***** (a fold increase >1.65 is indicated by five stars (*****))”.

As for `Cc1nc2ccc(-c3cc(=O)n4cc(N5CCC(N)CC5)ccc4n3)cc2o1` [Compound 242, 7-(4-aminopiperidin-1-yl)-2-(2-methyl-1,3-benzoxazol-6-yl)-4H-pyrido[1,2-a]pyrimidin-4-one], the EC (1.5-fold increase) in assay [1] is less than 0.1 µM. In addition, in assay [2], the “EC1.5x for Smn protein expression” value was “**** (an EC1.5x≤0.3 μM is indicated by four stars (****))”; the “maximum fold (Fold) increase” value was “**** (a fold increase between >1.5 and ≤1.65 is indicated by four stars (****))”.

`CCc1nc(C)cn2nc(-c3cc(=O)n4cc(NCCN5CCOCC5)ccc4n3)cc12` [Compound 823, 2-(4-ethyl-6-methylpyrazolo[1,5-a]pyrazin-2-yl)-7-{[2-(morpholin-4-yl)ethyl]amino}-4H-pyrido[1,2-a]pyrimidin-4-one]: in assay [1], the EC (1.5-fold increase) was 3 to 30 µM. In assay [2], the “maximum fold (Fold) increase” value was “** (a fold increase between >1.2 and ≤1.35 is indicated by two stars (**))”.
